Experimental data published in PubChem BioAssay (NCI).
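Values below derive from 48-hour exposures of cells grown in 96-well plates, with endpoints linearly interpolated between the two concentrations bracketing the appropriate inhibition level. TGI: concentration producing complete growth inhibition.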

Experiments:
Assay in all cases: inhibition of tumour cell growth, NCI panel, 48 h
U251 CNS = system: U251 CNS
CAKI-1 renal = system: CAKI-1 renal
786-0 renal = system: 786-0 renal
MALME-3M melanoma = system: MALME-3M melanoma
EKVX NSCLC = system: EKVX NSCLC
HOP-62 NSCLC = system: HOP-62 NSCLC
NCI-H226 lung = system: NCI-H226 lung
SR leukemia = system: SR leukemia
DU-145 prostate = system: DU-145 prostate
SK-MEL-2 melanoma = system: SK-MEL-2 melanoma
SW-620 colon = system: SW-620 colon
HL-60(TB) leukemia = system: HL-60(TB) leukemia
TK-10 renal = system: TK-10 renal
MCF7 breast = system: MCF7 breast
HOP-92 NSCLC = system: HOP-92 NSCLC
RPMI-8226 leukemia = system: RPMI-8226 leukemia
UO-31 renal = system: UO-31 renal
OVCAR-8 ovarian = system: OVCAR-8 ovarian
UACC-62 melanoma = system: UACC-62 melanoma
HT29 colon = system: HT29 colon
HCT-116 colon = system: HCT-116 colon
IGROV1 ovarian = system: IGROV1 ovarian
RXF 393 renal = system: RXF 393 renal
OVCAR-3 ovarian = system: OVCAR-3 ovarian
K-562 leukemia = system: K-562 leukemia
OVCAR-4 ovarian = system: OVCAR-4 ovarian
SK-MEL-28 melanoma = system: SK-MEL-28 melanoma
SNB-19 CNS = system: SNB-19 CNS
PC-3 prostate = system: PC-3 prostate
LOX IMVI melanoma = system: LOX IMVI melanoma
SK-OV-3 ovarian = system: SK-OV-3 ovarian
NCI-H23 lung = system: NCI-H23 lung
SF-539 CNS = system: SF-539 CNS
MDA-MB-435 = system: MDA-MB-435
SF-268 CNS = system: SF-268 CNS
A549 NSCLC = system: A549 NSCLC
SK-MEL-5 melanoma = system: SK-MEL-5 melanoma
SNB-75 CNS = system: SNB-75 CNS
KM12 colon = system: KM12 colon
NCI-H460 lung = system: NCI-H460 lung
HCT-15 colon = system: HCT-15 colon
ACHN renal = system: ACHN renal
T-47D breast = system: T-47D breast
A498 renal = system: A498 renal
MDA-N = system: MDA-N
MDA-MB-231 breast = system: MDA-MB-231 breast
UACC-257 melanoma = system: UACC-257 melanoma
OVCAR-5 ovarian = system: OVCAR-5 ovarian
COLO 205 colon = system: COLO 205 colon
NCI/ADR-RES ovarian = system: NCI/ADR-RES ovarian
CCRF-CEM leukemia = system: CCRF-CEM leukemia
M14 melanoma = system: M14 melanoma
BT-549 breast = system: BT-549 breast
HS 578T breast = system: HS 578T breast
SF-295 CNS = system: SF-295 CNS
HCC-2998 colon = system: HCC-2998 colon
SN12C renal = system: SN12C renal
NCI-H522 lung = system: NCI-H522 lung

Work on `Clc1ccccc1/C=C/c1ccnc2ccccc12` yielded a TGI (U251 CNS) of 31.4 µM, a TGI (CAKI-1 renal) of 30.5 µM and a TGI (786-0 renal) of 29.2 µM. For the same molecule, the TGI (MALME-3M melanoma) was 35.4 µM, the TGI (EKVX NSCLC) was 17.9 µM and the TGI (HOP-62 NSCLC) was 31.9 µM. It also gave a TGI (NCI-H226 lung) of 33.3 µM, a TGI (SR leukemia) of 46.8 µM and a TGI (DU-145 prostate) of 29 µM. For the same molecule, the TGI (SK-MEL-2 melanoma) was 34.2 µM, the TGI (SW-620 colon) was 35.6 µM and the TGI (HL-60(TB) leukemia) was 45 µM. It also gave a TGI (TK-10 renal) of 32.1 µM, a TGI (MCF7 breast) of 26.7 µM and a TGI (HOP-92 NSCLC) of 24.2 µM. For the same molecule, the TGI (RPMI-8226 leukemia) was 36.3 µM, the TGI (UO-31 renal) was 31 µM and the TGI (OVCAR-8 ovarian) was 36.3 µM. It also gave a TGI (UACC-62 melanoma) of 29 µM, a TGI (HT29 colon) of 29.8 µM and a TGI (HCT-116 colon) of 29.1 µM. For the same molecule, the TGI (IGROV1 ovarian) was 32.7 µM, the TGI (RXF 393 renal) was 31 µM and the TGI (OVCAR-3 ovarian) was 28 µM. The TGI (K-562 leukemia) was 38.6 µM, the TGI (OVCAR-4 ovarian) was 31.3 µM and the TGI (SK-MEL-28 melanoma) was 34.9 µM. For the same molecule, the TGI (SNB-19 CNS) was 31.3 µM, the TGI (PC-3 prostate) was 30.6 µM and the TGI (LOX IMVI melanoma) was 35.2 µM. It also gave a TGI (SK-OV-3 ovarian) of 32.8 µM, a TGI (NCI-H23 lung) of 27.5 µM and a TGI (SF-539 CNS) of 34.9 µM. For the same molecule, the TGI (MDA-MB-435) was 29.2 µM, the TGI (SF-268 CNS) was 40.2 µM and the TGI (A549 NSCLC) was 29.9 µM. It also gave a TGI (SK-MEL-5 melanoma) of 28.4 µM, a TGI (SNB-75 CNS) of 29 µM and a TGI (KM12 colon) of 31.6 µM. For the same molecule, the TGI (NCI-H460 lung) was 31.7 µM, the TGI (HCT-15 colon) was 28.1 µM and the TGI (ACHN renal) was 30.1 µM. It also gave a TGI (T-47D breast) of 30.2 µM, a TGI (A498 renal) of 33.1 µM and a TGI (MDA-N) of 27.7 µM. The TGI (MDA-MB-231 breast) was 41.9 µM, the TGI (UACC-257 melanoma) was 28.5 µM and the TGI (OVCAR-5 ovarian) was 34.5 µM. The TGI (COLO 205 colon) was 26.7 µM, the TGI (NCI/ADR-RES ovarian) was 32.9 µM and the TGI (CCRF-CEM leukemia) was 50.3 µM. It also gave a TGI (M14 melanoma) of 32.1 µM, a TGI (BT-549 breast) of 29 µM and a TGI (HS 578T breast) of 53 µM. It also gave a TGI (SF-295 CNS) of 29.2 µM, a TGI (HCC-2998 colon) of 32.2 µM and a TGI (SN12C renal) of 30.1 µM. For the same molecule, the TGI (NCI-H522 lung) was 31.7 µM.
For `CCC(N)(C(=O)O)C(C)C` (stereo unspecified), the TGI (U251 CNS) was greater than 100 µM, the TGI (CAKI-1 renal) was greater than 100 µM and the TGI (786-0 renal) was greater than 100 µM. It also gave a TGI (MALME-3M melanoma) greater than 100 µM, a TGI (EKVX NSCLC) greater than 100 µM and a TGI (HOP-62 NSCLC) greater than 100 µM. For the same molecule, the TGI (NCI-H226 lung) was greater than 100 µM, the TGI (SR leukemia) was greater than 100 µM and the TGI (DU-145 prostate) was greater than 100 µM. The TGI (SK-MEL-2 melanoma) was greater than 100 µM, the TGI (SW-620 colon) was greater than 100 µM and the TGI (HL-60(TB) leukemia) was greater than 100 µM. It also gave a TGI (TK-10 renal) greater than 100 µM, a TGI (MCF7 breast) greater than 100 µM and a TGI (HOP-92 NSCLC) greater than 100 µM. For the same molecule, the TGI (RPMI-8226 leukemia) was greater than 100 µM, the TGI (UO-31 renal) was greater than 100 µM and the TGI (OVCAR-8 ovarian) was greater than 100 µM. For the same molecule, the TGI (UACC-62 melanoma) was greater than 100 µM, the TGI (HT29 colon) was greater than 100 µM and the TGI (HCT-116 colon) was greater than 100 µM. The TGI (IGROV1 ovarian) was greater than 100 µM, the TGI (RXF 393 renal) was greater than 100 µM and the TGI (OVCAR-3 ovarian) was greater than 100 µM. For the same molecule, the TGI (K-562 leukemia) was greater than 100 µM, the TGI (OVCAR-4 ovarian) was greater than 100 µM and the TGI (SK-MEL-28 melanoma) was greater than 100 µM. The TGI (SNB-19 CNS) was greater than 100 µM, the TGI (PC-3 prostate) was greater than 100 µM and the TGI (LOX IMVI melanoma) was greater than 100 µM. The TGI (SK-OV-3 ovarian) was greater than 100 µM, the TGI (NCI-H23 lung) was greater than 100 µM and the TGI (SF-539 CNS) was greater than 100 µM. The TGI (MDA-MB-435) was greater than 100 µM, the TGI (SF-268 CNS) was greater than 100 µM and the TGI (A549 NSCLC) was greater than 100 µM. It also gave a TGI (SK-MEL-5 melanoma) greater than 100 µM, a TGI (SNB-75 CNS) greater than 100 µM and a TGI (KM12 colon) greater than 100 µM. The TGI (NCI-H460 lung) was greater than 100 µM, the TGI (HCT-15 colon) was greater than 100 µM and the TGI (ACHN renal) was greater than 100 µM. The TGI (T-47D breast) was greater than 100 µM, the TGI (A498 renal) was greater than 100 µM and the TGI (MDA-N) was greater than 100 µM. The TGI (MDA-MB-231 breast) was greater than 100 µM, the TGI (UACC-257 melanoma) was greater than 100 µM and the TGI (OVCAR-5 ovarian) was greater than 100 µM. It also gave a TGI (COLO 205 colon) greater than 100 µM, a TGI (NCI/ADR-RES ovarian) greater than 100 µM and a TGI (CCRF-CEM leukemia) greater than 100 µM. For the same molecule, the TGI (M14 melanoma) was greater than 100 µM, the TGI (BT-549 breast) was greater than 100 µM and the TGI (HS 578T breast) was greater than 100 µM. For the same molecule, the TGI (SF-295 CNS) was greater than 100 µM, the TGI (HCC-2998 colon) was greater than 100 µM and the TGI (SN12C renal) was greater than 100 µM. For the same molecule, the TGI (NCI-H522 lung) was greater than 100 µM.
